Test results published in US8617524B2, “Depigmenting keratin materials utilizing dithiolane compounds” (L'Oreal, priority 2008, dated 2013).

Legend:
[1] = test system: co-culture of keratinocytes and melanocytes; test: Activity on constitutive melanogenesis (inhibition of melanin synthesis; thiouracil/leucine incorporation ratio); format: cell-based; conditions: for Maximum Activity: inhibitory activity on melanin synthesis, ratio of incorporation of thiouracil to leucine, relative to 100% of the control without test compound
Description: (§1) The modulatory effect of the compounds on constitutive melanogenesis was measured according to the method described in FR-A-2,734,825 and also in the article by Schmidt et al., Anal. Biochem., 235(2), 1996, pp. 113-118. This test is performed on a co-culture of keratinocytes and melanocytes.
For the test compounds, the inhibitory activity on melanin synthesis was determined, by estimating the ratio of incorporation of thiouracil to the incorporation of leucine, relative to 100% of the control (the control corresponds to the test performed without test compound).

[2] = test system: co-culture of keratinocytes and melanocytes; test: Cytotoxicity on a co-culture; format: cell-based
Description: as §1

SMILES: CC1(C(N)=O)CSSC1 [Compound 2, 4-methyl-1,2-dithiolane-4-carboxamide]
- depigmenting action compared with arbutin and kojic acid ([1]; conclusion in words from the table of Example 25): greater depigmenting action than arbutin and kojic acid
- Maximum Activity [1]: −76%
- Cytotoxicity on a co-culture [2]: 100 µM

SMILES: OC[C@H]1O[C@@H](Oc2ccc(O)cc2)[C@H](O)[C@@H](O)[C@@H]1O [Arbutin]
- Maximum Activity [1]: −44%
- Cytotoxicity on a co-culture [2]: Non-cytotoxic

SMILES: O=c1cc(CO)occ1O [Kojic acid]
- Maximum Activity [1]: −30%
- Cytotoxicity on a co-culture [2]: 100 µM
